Test [1] concerns 11G2L cDNA (creatine transporter mRNA). As to the kind of experiment: Differential display of hypothalamic mRNA (band 11G2L). The test is classed as in vivo, rat. As to conditions: icv CoPP 0.4 umol/kg, 48 hours, absent in vehicle fed and fasted rats. The protocol: RNA Extraction from Rat Hypothalamus. Adult male Sprague-Dawley rats were randomly separated into three groups. Group 1 (control) was injected icv with saline and fed ad lib. Group 2 (fasted) was injected icv with saline and allowed ad lib access to water only; Group 3 (CoPP) was injected icv with CoPP 0.4 umol/kg body weight and fed ad lib. After 24 and 48 hours, weights were measured. Only those rats with robust weight loss of at least 10% of initial body weight 48 hours after treatment were chosen for the CoPP group. Eleven rats from each group were then killed by decapitation, using procedures outlined in the Animal Welfare Act and as approved by the University of Vermont, Office of Animal Care Management. The hypothalamic block of each rat was dissected from the rat's brain as described and immediately homogenized with RNase-free homogenizer. Total RNA was extracted using an Ultraspec-II RNA kit (Biotecx Laboratories, Inc., Houston, Tex.) following the manufacturer's procedures and stored at −80 degrees C. until analysis.
Differential Display-Reverse Transcription-Polymerase Chain Reaction (DD-RT-P). The RNAimage mRNA Differential Display system was purchased from GenHunter Corporation (Nashville, Tenn.). Three anchored H-T11M (where M refer to G, A, or C) primers and 12 sets of arbitrary primers (HAP 1 to 12) were chosen to use in this particular experiment. […]

The subject of test [2] is creatine transporter (CrT) protein. As to the kind of experiment: Creatine transporter immunoreactivity in rat brain. As to conditions: 4 hours after icv 0.4 um/kg; dorsomedial, supramamillary nucleus, III ventricle, habenular (p<0.05), paraventricular thalamic areas; FIG. 7. The test is classed as in vivo. The protocol:
In experiments involving immunohistochemistry, animals were injected icv with CoPP 0.4 umol/kg body weight or with vehicle. Four hours after injection, animals were anesthetized with halothane and perfused through the left ventricle of the heart, initially with oxygenated Krebs buffer and then with ˜350 ml of 4% paraformaldehyde in 0.1M NaCl, pH 7.4 phosphate buffered saline (PBS). Brains were extracted from the skull, hypothalamic blocks dissected (by coronal cuts anterior and posterior to hypothalamic landmarks) and post-fixed in 4% paraformaldehyde solution at 4 degrees C. overnight. The following day, the blocks were transferred to 30% sucrose and incubated overnight at 4 degrees C. […] They were allowed to dry, rewetted with PBS buffer and cover-slipped with Citifluor (Ted Pella, Reading, Calif.). Creatine transporter (CrT) and Fos studies were performed using indirect fluorescence visualization with rabbit anti-CrT (1:40; Alpha Diagnostics, San Antonio, Tex.) with goat anti-rabbit Cy3 (Jackson Immuno Research Laboratories, Inc., West Grove, Pa.) and rabbit c-Fos-AB5 (1:2,000; Oncogene Research Products, Cambridge, Mass.) with goat anti-rabbit Cy3 (1:500; Jackson Immuno Research Laboratories, Inc.) as the secondary antibody. […] Areas of interest were quantitated on each section in which they appeared and averaged to yield means+SEM of percentages. […]

Regarding `C=Cc1c(C)c2cc3[nH]c(cc4nc(cc5nc(cc1[nH]2)C(C)=C5CCC(=O)[O-])C(CCC(=O)[O-])=C4C)c(C)c3C=C.[Co+2]` [CoPP, Cobaltic protoporphyrin IX], the “cDNA band 11G2L in differential display” value in test [1] is recorded as “present”. Further, the “immunoreactive (IR) CrT compared to controls and fasted controls” value in test [2] is listed as “increased”.

Source of the values: US20090305225A1, “Inhibition of Creatine Uptake to Promote Weight Loss” (priority 2005, published 2009).
